Reference: EP4703358A1, “BENZO SIX-MEMBERED HETEROCYCLIC GSPT1 PROTEIN DEGRADATION AGENT AND USE THEREOF” (China Pharmaceutical University, priority 2023, dated 2024)

Assays:
[1] = male, SD, rat, in vivo, po, 10 mg/kg
Protocol: (§3) Sample collection and preparation: After SPF SD rats (male, 210-230 g, 42-48 days, RILD Liver) in a good growth state were dosed intravenously at 2 mg/kg and orally at 10 mg/kg, blood samples were collected via the orbit at different blood collection time points and transferred to centrifuge tubes containing an anticoagulant; the intravenous blood collection time points were 0.08 hours, 0.25 hours, 0.5 hours, 1 hour, 2 hours, 4 hours, 6 hours, 8 hours, and 24 hours, and the oral blood collection time points were 0.25 hours, 0.5 hours, 1 hour, 2 hours, 4 hours, 6 hours, 8 hours, and 24 hours. The blood samples were immediately centrifuged at 4 °C and 8000 rpm for 10 minutes, and the plasma was collected and stored in an ultra-low-temperature freezer at -80 °C until it was analyzed by LC-MS/MS. Pharmacokinetic data analysis: Pharmacokinetic parameters of the compounds were calculated using pharmacokinetic software in a non-compartmental model. The peak plasma concentration (Cmax) and the time to reach the peak plasma concentration (Tmax) were taken as observation values. Parameters such as the half-life T1/2, the areas under the plasma concentration-time curve AUClast and AUCinf, the apparent volume of distribution Vss, and the clearance rate CL were determined through regression analysis of the linear terminal portion of the logarithmic plasma concentration-time curve and the linear trapezoidal rule.

in vitro = settings: rat, microsomes
Protocol: 10 mM stock solutions of the test compounds in DMSO were prepared, diluted with acetonitrile and then with PBS, and vortexed, with the DMSO content controlled at 0.1%. The dilute working solutions (10 µL) were incubated with 65 µL of a liver microsome system (30 µL of 100 mM PBS, 25 µL of 20 mM MgCl2, and 10 µL of 5 mg/mL RLMs) and preheated at 37 °C for 5 min. 25 µL of 4 mM NADPH was added to start a reaction. Samples were taken at different time points (0 min, 5 min, 15 min, 30 min, 60 min, and 120 min), and an acetonitrile solution containing an internal standard was added to stop the reaction. After vortexing and centrifugation, the supernatants were collected and analyzed by LC-MS/MS, and the half-lives and clearance rates were calculated.

MOLM-13 = test: Antiproliferative activity against tumor cells (CCK8), MOLM-13; assay type: cell-based; settings: Homo sapiens, MOLM-13 cells, 72 hours
Protocol: (§1) U937, MOLM-13, and MV4-11 cells (ATCC) in the logarithmic growth phase were separately diluted in a culture medium and plated onto 96-well plates at 5000 cells/well, and the plates were incubated in an incubator at 37 °C with 5% CO2 for 24 hours. 10 mM stock solutions of the compounds in DMSO were prepared and diluted with the culture medium to set 9 concentration gradients. Three replicate wells were set for each concentration. After compound addition, the plates were incubated in an incubator at 37 °C with 5% CO2 for 72 hours. The cell proliferation was assessed using the CCK8 method. The cell growth inhibition IC50 values of the compounds were determined using an enzyme labeling method. The IC50 values were calculated using GraphPad Prism 7 software.
(§2) The antiproliferative activity of the compounds against the tumor cells is shown in Table 3, where A represents IC50 < 1 nM, B represents 1 ≤ IC50 < 10 nM, C represents 10 nM ≤ IC50 < 100 nM, D represents 100 nM ≤ IC50 < 1000 nM, and E represents IC50 ≥ 1000 nM. Table 3. The antiproliferative activity of compounds against tumor cells

U937 = test: Antiproliferative activity against tumor cells (CCK8), U937; assay type: cell-based; settings: Homo sapiens, U-937, 72 hours
Protocol: as §1, §2

MV4-11 = test: Antiproliferative activity against tumor cells (CCK8), MV4-11; assay type: cell-based; settings: Homo sapiens, MV4-11 cells, 72 hours
Protocol: as §1, §2

in vivo = settings: male, SD, rat
Protocol: as §3

GSPT1 protein = molecular target: T1, GSPT1 protein (Homo sapiens, UniProt P15170+Q96SW2); test: Degradation of GSPT1 in KG-1 cells (Western blot); assay type: cell-based; settings: KG-1 cells, compound concentration 200 nM, 4 hours
T1 construct: host or cells: KG-1 cells
T1 sequence (P15170 whole entry): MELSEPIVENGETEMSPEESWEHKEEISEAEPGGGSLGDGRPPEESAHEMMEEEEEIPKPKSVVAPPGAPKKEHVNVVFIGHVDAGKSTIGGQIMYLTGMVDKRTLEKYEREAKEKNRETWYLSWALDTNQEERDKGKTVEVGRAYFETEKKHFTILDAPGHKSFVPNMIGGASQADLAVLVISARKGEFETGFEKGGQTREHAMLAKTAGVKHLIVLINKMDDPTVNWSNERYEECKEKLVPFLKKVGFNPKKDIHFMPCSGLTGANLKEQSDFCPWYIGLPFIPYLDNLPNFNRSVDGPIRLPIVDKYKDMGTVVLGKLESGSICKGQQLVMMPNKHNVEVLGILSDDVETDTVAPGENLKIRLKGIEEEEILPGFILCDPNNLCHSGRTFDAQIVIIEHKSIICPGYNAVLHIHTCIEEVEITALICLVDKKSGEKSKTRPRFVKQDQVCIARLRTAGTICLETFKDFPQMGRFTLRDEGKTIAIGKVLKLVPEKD
T1 sequence (Q96SW2 whole entry): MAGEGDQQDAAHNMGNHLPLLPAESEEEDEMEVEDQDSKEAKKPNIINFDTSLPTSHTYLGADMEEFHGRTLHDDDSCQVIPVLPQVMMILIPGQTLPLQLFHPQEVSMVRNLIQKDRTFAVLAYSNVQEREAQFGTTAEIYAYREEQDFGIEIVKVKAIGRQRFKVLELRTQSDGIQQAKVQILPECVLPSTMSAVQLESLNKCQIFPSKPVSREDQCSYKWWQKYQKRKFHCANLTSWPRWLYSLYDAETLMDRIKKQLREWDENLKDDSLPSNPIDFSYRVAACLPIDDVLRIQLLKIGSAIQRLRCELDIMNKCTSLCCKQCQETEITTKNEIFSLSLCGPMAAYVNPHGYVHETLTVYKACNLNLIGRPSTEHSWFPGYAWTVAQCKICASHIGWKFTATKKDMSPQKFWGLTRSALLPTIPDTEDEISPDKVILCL
T1 sequence (Q16531 whole entry partner): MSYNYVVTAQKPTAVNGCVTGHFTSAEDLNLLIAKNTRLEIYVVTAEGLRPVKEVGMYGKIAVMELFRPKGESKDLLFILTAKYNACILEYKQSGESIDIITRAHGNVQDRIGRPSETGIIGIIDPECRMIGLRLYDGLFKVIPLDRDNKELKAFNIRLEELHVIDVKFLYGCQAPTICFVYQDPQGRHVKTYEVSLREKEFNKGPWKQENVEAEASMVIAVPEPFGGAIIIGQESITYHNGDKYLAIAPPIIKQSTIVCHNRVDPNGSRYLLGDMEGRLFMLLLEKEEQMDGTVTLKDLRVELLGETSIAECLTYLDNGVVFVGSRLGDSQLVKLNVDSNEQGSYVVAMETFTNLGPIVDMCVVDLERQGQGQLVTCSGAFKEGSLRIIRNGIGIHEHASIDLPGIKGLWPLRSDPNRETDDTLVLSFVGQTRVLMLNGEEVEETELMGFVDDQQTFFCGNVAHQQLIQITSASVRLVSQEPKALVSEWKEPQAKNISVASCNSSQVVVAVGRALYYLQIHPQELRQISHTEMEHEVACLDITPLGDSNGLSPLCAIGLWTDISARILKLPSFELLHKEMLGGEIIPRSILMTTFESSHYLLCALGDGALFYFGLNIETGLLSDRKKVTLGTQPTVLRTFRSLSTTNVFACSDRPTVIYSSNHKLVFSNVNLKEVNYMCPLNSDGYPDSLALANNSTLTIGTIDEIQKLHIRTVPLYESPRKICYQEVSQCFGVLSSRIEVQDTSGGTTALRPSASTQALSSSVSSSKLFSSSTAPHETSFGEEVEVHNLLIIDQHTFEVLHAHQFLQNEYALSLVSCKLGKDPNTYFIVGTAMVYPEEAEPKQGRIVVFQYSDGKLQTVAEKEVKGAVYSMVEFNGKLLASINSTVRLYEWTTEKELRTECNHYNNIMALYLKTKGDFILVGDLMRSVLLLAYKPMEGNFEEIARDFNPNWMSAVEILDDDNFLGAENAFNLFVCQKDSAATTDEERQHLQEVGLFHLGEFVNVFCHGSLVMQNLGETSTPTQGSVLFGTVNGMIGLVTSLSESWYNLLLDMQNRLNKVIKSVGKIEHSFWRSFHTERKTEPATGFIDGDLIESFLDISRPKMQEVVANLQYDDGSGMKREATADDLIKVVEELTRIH

KG-1 cells = test: Antiproliferative activity against KG-1 cells (CCK8); assay type: cell-based; settings: Homo sapiens, 72 hours
Summary of the method: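 Cells seeded at 5000/well in RPMI + 10% FBS, grown 24 h at 37 °C/5% CO2, then exposed to a 9-point dilution series (triplicate wells) for 72 h. Viability read by CCK8; IC50 calculated from growth inhibition.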

For `O=C1CCC(N2Cc3cc(CNC(=O)C(F)(F)c4ccc(Cl)cc4)ccc3C2=O)C(=O)N1` (stereo not shown) [CC-90009], the F [1] was 31.2±9.1%, the half-life (in vitro) was 1.29 h and the microsomal CLint (in vitro) was 17.9 µL/min/mg. It also gave an IC50 (MOLM-13) of 100 to 1000 nM, an IC50 (U937) of 10 to 100 nM and an IC50 (MV4-11) of 10 to 100 nM. The AUC(0-inf) (in vivo; iv, 2 mg/kg) was 1200 ± 304 ng·h/mL, the AUC(0-t) (in vivo; iv, 2 mg/kg) was 1200 ng·h/mL and the C0 (in vivo; iv, 2 mg/kg) was 1870 ± 492 ng/mL. The Vd (in vivo; iv, 2 mg/kg) was 2.85 ± 0.63 L/kg, the clearance (in vivo; iv, 2 mg/kg) was 28.8 ± 6.4 mL/min/kg and the half-life (in vivo; iv, 2 mg/kg) was 1.44 ± 0.26 h. It also gave an AUC(0-inf) (in vivo; po, 10 mg/kg) of 1896 ± 14 ng·h/mL, an AUC(0-t) (in vivo; po, 10 mg/kg) of 1892 ± 12 ng·h/mL and a Cmax (in vivo; po, 10 mg/kg) of 616 ± 53 ng/mL. For the same molecule, the Tmax (in vivo; po, 10 mg/kg) was 1.5 ± 0.71 h, the half-life (in vivo; po, 10 mg/kg) was 2.91 ± 0.28 h and the percent GSPT1 degradation at 0.2 µM (GSPT1 protein) was 50 to 80%. For the same molecule, the IC50 (KG-1 cells) was 10 to 100 nM.
